The results in this text go back to patent publication US20050175550A1, “Compositions for oral use” (priority 2000, published 2005).

Assay in all cases: MIC by agar plate dilution method on standard strains (Example 3)
Common to all, as to assay type: cell-based
Conditions in all cases: read-out: MIC

Assay [1] concerns Staphylococcus epidermidis ATCC12228. The protocol:
(§1) Minimum growth-inhibiting concentrations of trifluoromethionine and other antibacterial drugs on standard strains were determined by an agar plate dilution method according to the standard method of Japanese Society of Chemotherapy.
(§2) Drug solutions at a concentration 10 times as high as the maximum applicable concentration were prepared as original solutions of test drugs given in Table 2 (as to solvents used for this purpose, reference should be made also to Table 2). Serial two-fold dilution series of the original solutions were prepared at desired stages, and 1 ml each of the diluted drug solutions was added to 9 ml of media given in Table 3 to prepare drug plates. Concentration range of the individual drugs used are as follows: trifluoromethionine: 400-0.025 μg/ml (15 stages), tetracycline: 100-0.025 μg/ml (13 stages), and clarithromycin: 100-0.025 μg/ml (13 stages).
(§3) • 1) Bacterial solutions stocked at −80° C. were inoculated on agar media (as to media used, reference should be made to Table 3), and then incubated at 37° C. overnight. When desired, subculturing was conducted once more on the same agar media (by overnight incubation at 37° C.). • 2) Colonies growing on the agar media were sampled by a platinum loop, suspended in liquid media (reference should be made to Table 3) and statically incubated at 37° C. for 18 hours (preculturing). • 3) Preculturing was continued up to McFarland 0.5 (McFarland 0.5=about 10^8 CFU/ml), and then the culture broths were diluted with Muellar Hinton Broth to make 10^6 CFU/ml. 5 μl each of the diluted solutions were inoculated on the above-mentioned drug plates by an inoculator Microplanter.
(§4) Thus, bacterial solutions at about 10^8 CFU/ml can be easily prepared by use of McFarland 0.5. Bacterial solutions at such a turbidity are commercially available, but can be easily prepared. McFarland 0.5 can be obtained by adding 0.5 ml of an aqueous 0.048 mol/l barium chloride solution to 99.5 ml of 1% v/v (0.18 mol/l) sulfuric acid. • 4) The individual bacteria were incubated at 37° C. for 18-20 hours and then the growth was determined in the same manner as in Example 2 to obtain minimum growth-inhibiting concentrations.

The test system of assay [2] is Staphylococcus epidermidis ATCC29886. The protocol:
as §1, §2, §3, §4

Assay [3] relates to Bacillus subtilis ATCC6633. The protocol:
as §3, with “Drug solutions at a concentration 10 times as high as the maximum applicable concentration were prepared as original solutions of test drugs given in Table 2 (as to solvents used for this purpose, reference should be made also to Table 2). Serial two-fold dilution series of the original solutions were prepared at desired stages, and 1 ml each of the diluted drug solutions was added to 9 ml of media given in Table 3 to prepare drug plates. […] • 1)” for “• 1)”, “inoculator Microplanter. […] Thus, bacterial solutions at about 10^8 CFU/ml can be easily prepared by use of McFarland 0.5. Bacterial solutions at such a turbidity are commercially available, but can be easily prepared.” for “inoculator Microplanter.”

In assay [4] the test system is Enterococcus faecalis ATCC29247. The protocol:
as §3, with “Drug solutions at a concentration 10 times as high as the maximum applicable concentration were prepared as original solutions of test drugs given in Table 2 (as to solvents used for this purpose, reference should be made also to Table 2). Serial two-fold dilution series of the original solutions were prepared at desired stages, and 1 ml each of the diluted drug solutions was added to 9 ml of media given in Table 3 to prepare drug plates. […] • 1)” for “• 1)”, “inoculator Microplanter. […] Thus, bacterial solutions at about 10^8 CFU/ml can be easily prepared by use of McFarland 0.5. Bacterial solutions at such a turbidity are commercially available, but can be easily prepared.” for “inoculator Microplanter.”

For assay [5], the system named is Enterococcus faecium ATCC19434. The protocol:
as §3, with “Drug solutions at a concentration 10 times as high as the maximum applicable concentration were prepared as original solutions of test drugs given in Table 2 (as to solvents used for this purpose, reference should be made also to Table 2). Serial two-fold dilution series of the original solutions were prepared at desired stages, and 1 ml each of the diluted drug solutions was added to 9 ml of media given in Table 3 to prepare drug plates. […] • 1)” for “• 1)”, “inoculator Microplanter. […] Thus, bacterial solutions at about 10^8 CFU/ml can be easily prepared by use of McFarland 0.5. Bacterial solutions at such a turbidity are commercially available, but can be easily prepared.” for “inoculator Microplanter.”

The test system of assay [6] is Escherichia coli ATCC25922. The protocol:
as §3, with “Drug solutions at a concentration 10 times as high as the maximum applicable concentration were prepared as original solutions of test drugs given in Table 2 (as to solvents used for this purpose, reference should be made also to Table 2). Serial two-fold dilution series of the original solutions were prepared at desired stages, and 1 ml each of the diluted drug solutions was added to 9 ml of media given in Table 3 to prepare drug plates. […] • 1)” for “• 1)”, “inoculator Microplanter. […] Thus, bacterial solutions at about 10^8 CFU/ml can be easily prepared by use of McFarland 0.5. Bacterial solutions at such a turbidity are commercially available, but can be easily prepared.” for “inoculator Microplanter.”

Assay [7] concerns Escherichia coli ATCC35218. The procedure:
as §3, with “Drug solutions at a concentration 10 times as high as the maximum applicable concentration were prepared as original solutions of test drugs given in Table 2 (as to solvents used for this purpose, reference should be made also to Table 2). Serial two-fold dilution series of the original solutions were prepared at desired stages, and 1 ml each of the diluted drug solutions was added to 9 ml of media given in Table 3 to prepare drug plates. […] • 1)” for “• 1)”, “inoculator Microplanter. […] Thus, bacterial solutions at about 10^8 CFU/ml can be easily prepared by use of McFarland 0.5. Bacterial solutions at such a turbidity are commercially available, but can be easily prepared.” for “inoculator Microplanter.”

The subject of assay [8] is Haemophilus influenzae ATCC33391. The protocol: as §3, with “Drug solutions at a concentration 10 times as high as the maximum applicable concentration were prepared as original solutions of test drugs given in Table 2 (as to solvents used for this purpose, reference should be made also to Table 2). Serial two-fold dilution series of the original solutions were prepared at desired stages, and 1 ml each of the diluted drug solutions was added to 9 ml of media given in Table 3 to prepare drug plates. […] • 1)” for “• 1)”, “inoculator Microplanter. […] Thus, bacterial solutions at about 10^8 CFU/ml can be easily prepared by use of McFarland 0.5. Bacterial solutions at such a turbidity are commercially available, but can be easily prepared.” for “inoculator Microplanter.”

Assay [9] relates to Haemophilus influenzae ATCC33533. The protocol:
as §3, with “Drug solutions at a concentration 10 times as high as the maximum applicable concentration were prepared as original solutions of test drugs given in Table 2 (as to solvents used for this purpose, reference should be made also to Table 2). Serial two-fold dilution series of the original solutions were prepared at desired stages, and 1 ml each of the diluted drug solutions was added to 9 ml of media given in Table 3 to prepare drug plates. […] • 1)” for “• 1)”, “inoculator Microplanter. […] Thus, bacterial solutions at about 10^8 CFU/ml can be easily prepared by use of McFarland 0.5. Bacterial solutions at such a turbidity are commercially available, but can be easily prepared.” for “inoculator Microplanter.”

The subject of assay [10] is Haemophilus influenzae ATCC49247. The protocol: as §3, with “Drug solutions at a concentration 10 times as high as the maximum applicable concentration were prepared as original solutions of test drugs given in Table 2 (as to solvents used for this purpose, reference should be made also to Table 2). Serial two-fold dilution series of the original solutions were prepared at desired stages, and 1 ml each of the diluted drug solutions was added to 9 ml of media given in Table 3 to prepare drug plates. […] • 1)” for “• 1)”, “inoculator Microplanter. […] Thus, bacterial solutions at about 10^8 CFU/ml can be easily prepared by use of McFarland 0.5. Bacterial solutions at such a turbidity are commercially available, but can be easily prepared.” for “inoculator Microplanter.”

Assay [11] has as its system Haemophilus influenzae ATCC49766. The procedure:
as §3, with “Drug solutions at a concentration 10 times as high as the maximum applicable concentration were prepared as original solutions of test drugs given in Table 2 (as to solvents used for this purpose, reference should be made also to Table 2). Serial two-fold dilution series of the original solutions were prepared at desired stages, and 1 ml each of the diluted drug solutions was added to 9 ml of media given in Table 3 to prepare drug plates. […] • 1)” for “• 1)”, “inoculator Microplanter. […] Thus, bacterial solutions at about 10^8 CFU/ml can be easily prepared by use of McFarland 0.5. Bacterial solutions at such a turbidity are commercially available, but can be easily prepared.” for “inoculator Microplanter.”

The subject of assay [12] is Klebsiella pneumoniae ATCC700603. The protocol:
as §3, with “Drug solutions at a concentration 10 times as high as the maximum applicable concentration were prepared as original solutions of test drugs given in Table 2 (as to solvents used for this purpose, reference should be made also to Table 2). Serial two-fold dilution series of the original solutions were prepared at desired stages, and 1 ml each of the diluted drug solutions was added to 9 ml of media given in Table 3 to prepare drug plates. […] • 1)” for “• 1)”, “inoculator Microplanter. […] Thus, bacterial solutions at about 10^8 CFU/ml can be easily prepared by use of McFarland 0.5. Bacterial solutions at such a turbidity are commercially available, but can be easily prepared.” for “inoculator Microplanter.”

In assay [13] the test system is Micrococcus luteus ATCC9341. The protocol:
as §3, with “Drug solutions at a concentration 10 times as high as the maximum applicable concentration were prepared as original solutions of test drugs given in Table 2 (as to solvents used for this purpose, reference should be made also to Table 2). Serial two-fold dilution series of the original solutions were prepared at desired stages, and 1 ml each of the diluted drug solutions was added to 9 ml of media given in Table 3 to prepare drug plates. […] • 1)” for “• 1)”, “inoculator Microplanter. […] Thus, bacterial solutions at about 10^8 CFU/ml can be easily prepared by use of McFarland 0.5. Bacterial solutions at such a turbidity are commercially available, but can be easily prepared.” for “inoculator Microplanter.”

In assay [14] the test system is Moraxella (Branhamella) catarrhalis ATCC25238. The protocol: as §3, with “Drug solutions at a concentration 10 times as high as the maximum applicable concentration were prepared as original solutions of test drugs given in Table 2 (as to solvents used for this purpose, reference should be made also to Table 2). Serial two-fold dilution series of the original solutions were prepared at desired stages, and 1 ml each of the diluted drug solutions was added to 9 ml of media given in Table 3 to prepare drug plates. […] • 1)” for “• 1)”, “inoculator Microplanter. […] Thus, bacterial solutions at about 10^8 CFU/ml can be easily prepared by use of McFarland 0.5. Bacterial solutions at such a turbidity are commercially available, but can be easily prepared.” for “inoculator Microplanter.”

SMILES strings stand for the structures. ≈ marks a conversion by molar mass, not a printed value.

For the compound `CN(C)[C@@H]1C(O)=C(C(N)=O)C(=O)[C@@]2(O)C(O)=C3C(=O)c4c(O)cccc4[C@@](C)(O)[C@H]3C[C@@H]12` [TC, Tetracycline], the MIC in assay [1] turned out to be 50 µg/mL (≈ 113 µM); in assay [2], 0.39 µg/mL (≈ 0.878 µM); in [3], 0.2 µg/mL (≈ 0.45 µM); in assay [4], 25 µg/mL (≈ 56.3 µM); in assay [5], 0.2 µg/mL (≈ 0.45 µM); in [6], 1.56 µg/mL (≈ 3.51 µM). Besides, the MIC in assay [7] is 1.56 µg/mL (≈ 3.51 µM); in assay [8] it was 0.78 µg/mL (≈ 1.76 µM); in assay [9], 0.39 µg/mL (≈ 0.878 µM); in assay [10], 25 µg/mL (≈ 56.3 µM); in assay [11] it was 0.78 µg/mL (≈ 1.76 µM); in assay [12], 50 µg/mL (≈ 113 µM). Moreover, the results for the MIC in [13] and in [14] were 0.78 µg/mL (≈ 1.76 µM) and 0.2 µg/mL (≈ 0.45 µM), respectively.
